One series addresses GLP-1R (Homo sapiens (Human), UniProt P43220). Kind of series: GLP-1R activation: cAMP increase in CHO cells stably expressing GLP-1R. Particulars: cAMP increase, 10 point dose response, 30 minutes incubation at 37° C., read-out: EC50. In kind it is cell-based. The procedure, abridged: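 CHO cells stably expressing GLP-1R were incubated 1 h at 37 °C in medium with 1% BSA, then exposed to compound in a 10-point dose response for 30 min at 37 °C. cAMP rise was detected by HTRF (Gs Dynamic kit). EC50 came from a sigmoidal fit of response against log agonist concentration.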

Series [1] in a line: Microsomal stability (liver microsomal assay, mixed cofactors); predicted hepatic clearance. Particulars: liver microsomes 1.0 mg protein/mL (+UDPGA +NADPH), 1 μM analyte, 37° C.; scaled with human liver weight and hepatic blood flow 1.3 L/hr/kg. In kind it is in vitro ADME. The procedure, abridged:
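Compound at 1 μM with human or rat pooled liver microsomes, alamethicin-treated, pH 7.4 phosphate, NADPH-regenerating plus UDPGA cofactors, 37° C, sampled 0–70 min. Parent/internal standard ratio by RapidFire QToF MS; half-life from initial log-linear decay, scaled to intrinsic and predicted hepatic clearance and hepatic extraction.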

pEC50: −log10 of the molar value.

Chain of GLP-1R (P43220 24-463): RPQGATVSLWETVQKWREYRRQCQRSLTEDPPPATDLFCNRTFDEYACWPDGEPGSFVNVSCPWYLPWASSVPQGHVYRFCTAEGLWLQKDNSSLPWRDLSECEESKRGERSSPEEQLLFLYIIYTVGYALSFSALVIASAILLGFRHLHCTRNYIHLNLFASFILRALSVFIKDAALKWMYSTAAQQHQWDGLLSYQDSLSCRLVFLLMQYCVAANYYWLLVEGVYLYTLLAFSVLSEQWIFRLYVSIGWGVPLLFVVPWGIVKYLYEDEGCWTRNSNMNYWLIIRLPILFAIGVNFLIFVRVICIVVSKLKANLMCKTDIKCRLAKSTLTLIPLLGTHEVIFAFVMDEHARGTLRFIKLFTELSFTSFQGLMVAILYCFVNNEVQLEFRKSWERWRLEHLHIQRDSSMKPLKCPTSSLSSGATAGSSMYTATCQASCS

In the case of `N#Cc1ccc(C2Oc3cccc(-c4cc(F)c(Cc5nc6ccc(C(=O)O)cc6n5C[C@@H]5CCO5)c(F)c4)c3O2)c(F)c1` (stereo partly drawn) [Example 30, (S)-2-(4-(2-(4-cyano-2-fluorophenyl)benzo [d][1,3]dioxol-4-yl)-2,6-difluorobenzyl)-1-(oxetan-2-ylmethyl)-1H-benzo[d]imidazole-6-carboxylic acid], the pEC50 on GLP-1R was 8.72. Besides, in series [1], the “Predicted Hepatic Clearance (Pred. Cl.)” value was 3.5 mL/min/kg.

Take `CC1(c2ccc(Cl)cn2)Oc2cccc(-c3cc(F)c(Cc4nc5ccc(C(=O)O)cc5n4C[C@@H]4CCO4)cc3F)c2O1` (single isomer, unassigned) [Example 46]: the pEC50 on GLP-1R is 7.77. Further, the “Predicted Hepatic Clearance (Pred. Cl.)” value in series [1] was 4.33 mL/min/kg.

With `COCCn1c(Cc2c(F)cc(-c3cccc4c3OC3(CCCOc5cc(Cl)ccc53)O4)cc2F)nc2ccc(C(=O)O)cc21` (stereo not drawn) [Example 55, 2-(4-(8-chloro-3,4-dihydro-2H-spiro[benzo[b]oxepine-5,2′-benzo[d][1,3]dioxol]-4′-yl)-2,6-difluorobenzyl)-1-(2-methoxyethyl)-1H-benzo[d]imidazole-6-carboxylic acid], the pEC50 at GLP-1R is 5.90. Also, in series [1], the “Predicted Hepatic Clearance (Pred. Cl.)” value was 8.3 mL/min/kg.

Consider `CC1(c2ccc(Cl)cc2F)Oc2cccc(-c3cc(F)c(Cc4nc5ccc(C(=O)O)cc5n4C[C@@H]4CCO4)c(F)c3F)c2O1` (stereo partly drawn) [Example 20, 2-(4-(2-(4-chloro-2-fluorophenyl)-2-methylbenzo[d][1, 3]dioxol-4-yl)-2,3,6-trifluorobenzyl)-1-(((S)-oxetan-2-yl)methyl)-1H-benzo[d]imidazole-6-carboxylic acid], for which, at GLP-1R, the pEC50 is 10.05. The “Predicted Hepatic Clearance (Pred. Cl.)” value in series [1] was 2.5 mL/min/kg.

On to `CC1(c2ccc(Cl)cn2)Oc2cccc(-c3cc(F)c(Cc4nc5ccc(C(=O)O)cc5n4C[C@@H]4CCO4)c(C#N)c3)c2O1` (stereo partly drawn) [Example 74, 2-(4-(2-(5-chloropyridin-2-yl)-2-methylbenzo[d][1, 3]dioxol-4-yl)-2-cyano-6-fluorobenzyl)-1-(((S)-oxetan-2-yl)methyl)-1H-benzo[d]imidazole-6-carboxylic acid], for which the pEC50 on GLP-1R is 8.77. In addition, in series [1], the “Predicted Hepatic Clearance (Pred. Cl.)” value was 7.67 mL/min/kg.

`COCCn1c(Cc2ccc(-c3cccc4c3OC(c3ccc(C#N)cc3F)O4)cc2F)nc2ccc(C(=O)O)cc21` (single isomer, unassigned) [Example 33, 2-(4-(2-(4-cyano-2-fluorophenyl)benzo [d][1,3]dioxol-4-yl)-2-fluorobenzyl)-1-(2-methoxyethyl)-1H-benzo[d]imidazole-6-carboxylic acid]: the pEC50 on GLP-1R was 7.28. In addition, the “Predicted Hepatic Clearance (Pred. Cl.)” value in series [1] was 2.67 mL/min/kg.

`COCCn1c(Cc2ccc(-c3cccc4c3OC(C)(c3ccc(Cl)cc3F)O4)nc2OC)nc2ccc(C(=O)O)cc21` (stereo not drawn) [Example 85, 2-((6-(2-(4-chloro-2-fluorophenyl)-2-methylbenzo[d][1, 3]dioxol-4-yl)-2-methoxypyridin-3-yl)methyl)-1-(2-methoxyethyl)-1H-benzo[d]imidazole-6-carboxylic acid]: the pEC50 on GLP-1R is 6.77. The “Predicted Hepatic Clearance (Pred. Cl.)” value in series [1] is 3 mL/min/kg.

With `CC1(c2ccc(Cl)cc2F)Oc2cccc(-c3cc(F)c(Cc4nc5c(F)cc(C(=O)O)cc5n4CC4(CC#N)CC4)c(F)c3)c2O1` (stereo not drawn) [Example 13, 2-(4-(2-(4-chloro-2-fluorophenyl)-2-methylbenzo[d][1, 3]dioxol-4-yl)-2,6-difluorobenzyl)-1-((1-(cyanomethyl)cyclo-propyl)methyl)-4-fluoro-1H-benzo[d]imidazole-6-carboxylic acid], on GLP-1R, the pEC50 was 9.39. Moreover, the “Predicted Hepatic Clearance (Pred. Cl.)” value in series [1] is less than 1.83 mL/min/kg.

For the molecule `COCCn1c(Cc2c(F)cc(-c3cccc4c3O[C@@](C)(c3ccc(Cl)cc3F)O4)cc2F)nc2ccc(C(=O)O)cc21` [Example 102, 2-(4-(2-(4-chloro-2-fluorophenyl)-2-methylbenzo[d][1, 3]dioxol-4-yl)-2,6-difluorobenzyl)-1-(2-methoxyethyl)-1H-benzo[d]imidazole-6-carboxylic acid], the negative-log EC50 (pEC50) on GLP-1R is 7.19. Moreover, in series [1], the “Predicted Hepatic Clearance (Pred. Cl.)” value is 3.17 mL/min/kg.

Regarding `COCCn1c(Cc2cc(F)c(-c3cccc4c3OC(c3ccc(C#N)cc3F)O4)cc2F)nc2ccc(C(=O)O)cc21` (single isomer, unassigned) [Example 39, 2-(4-(2-(4-cyano-2-fluorophenyl)benzo [d][1,3]dioxol-4-yl)-2,5-difluorobenzyl)-1-(2-methoxyethyl)-1H-benzo[d]imidazole-6-carboxylic acid], the pEC50 on GLP-1R is 7.31. Also, the “Predicted Hepatic Clearance (Pred. Cl.)” value in series [1] is 3.17 mL/min/kg.

Consider `COCCn1c(Cc2c(F)cc(-c3cccc4c3OC3(CCCCc5cc(Cl)ccc53)O4)cc2F)nc2ccc(C(=O)O)cc21` (stereo not drawn) [Example 57, 2-(4-(2′-chloro-6′,7′,8′,9′-tetrahydrospiro[benzo [d][1,3]dioxole-2,5′-benzo[7]annulen]-4-yl)-2,6-difluorobenzyl)-1-(2-methoxyethyl)-1H-benzo[d]imidazole-6-carboxylic acid], for which, on GLP-1R, the pEC50 is 6.46. The “Predicted Hepatic Clearance (Pred. Cl.)” value in series [1] was 9.17 mL/min/kg.

Turning to `CC(=O)N1CC[C@@H]1Cn1c(Cc2ccc(-c3cccc4c3OC(C)(c3ccc(Cl)cc3F)O4)cc2F)nc2ccc(C(=O)O)cc21` (stereo partly drawn) [Example 108, 3-[[(2R)-1-acetylazetidin-2-yl]methyl]-2-[[4-[2-(4-chloro-2-fluoro-phenyl)-2-methyl-1,3-benzodioxol-4-yl]-2-fluoro-phenyl]methyl] benzimidazole-5-carboxylic acid], the negative-log EC50 (pEC50) at GLP-1R is 8.37. For the same molecule, the “Predicted Hepatic Clearance (Pred. Cl.)” value in series [1] is 2 mL/min/kg.

As for `COCCn1c(Cc2ccc(-c3cccc4c3OC(C)(c3ccc(Cl)cc3F)O4)cc2F)nc2ccc(C(=O)O)cc21` (stereo not drawn) [Example 80, 2-(4-(2-(4-chloro-2-fluorophenyl)-2-methylbenzo[d][1, 3]dioxol-4-yl)-2-fluorobenzyl)-1-(2-methoxyethyl)-1H-benzo[d]imidazole-6-carboxylic acid], the pEC50 at GLP-1R is 7.96. For the same molecule, the “Predicted Hepatic Clearance (Pred. Cl.)” value in series [1] is 4 mL/min/kg.

With `O=C(O)c1ccc2nc(Cc3c(F)cc(-c4cccc5c4C(=O)N(c4ccc(Cl)cc4F)C5)cc3F)n(C[C@@H]3CCO3)c2c1` [Example 72, (S)-2-(4-(2-(4-chloro-2-fluorophenyl)-3-oxoisoindolin-4-yl)-2,6-difluorobenzyl)-1-(oxetan-2-ylmethyl)-1H-benzo[d]imidazole-6-carboxylic acid], the pEC50 on GLP-1R was 5.00. Further, in series [1], the “Predicted Hepatic Clearance (Pred. Cl.)” value is 3.67 mL/min/kg.

`COCCn1c(Cc2c(F)cc(-c3cccc4c3OC(CCC(=O)O)(c3ccc(Cl)cc3)N4)cc2F)nc2ccc(C(=O)O)cc21` (stereo not drawn) [Example 10, 2-(4-(2-(2-carboxyethyl)-2-(4-chlorophenyl)-2,3-dihydrobenzo[d]oxazol-7-yl)-2,6-difluorobenzyl)-1-(2-methoxyethyl)-1H-benzo[d]imidazole-6-carboxylic acid]: on GLP-1R, the pEC50 is 6.89. Besides, the “Predicted Hepatic Clearance (Pred. Cl.)” value in series [1] was 12.7 mL/min/kg.

With `COCCn1c(Cc2c(F)cc(-c3c(F)ccc4c3OC(C)(c3ccc(Cl)cn3)O4)cc2F)nc2ccc(C(=O)O)cc21` (stereo not drawn) [Example 100, 2-(4-(2-(5-chloropyridin-2-yl)-5-fluoro-2-methylbenzo[d][1, 3]dioxol-4-yl)-2,6-difluorobenzyl)-1-(2-methoxyethyl)-1H-benzo[d]imidazole-6-carboxylic acid], on GLP-1R, the pEC50 is 7.85. Also, the “Predicted Hepatic Clearance (Pred. Cl.)” value in series [1] was 10.3 mL/min/kg.

For “2-[[4-[2-(5- Chloro-2-pyridyl)- 2-methyl-1,3- benzodioxol-4- yl]triazol-1- yl]methyl]-3-(2- methoxyethyl) bencarboxylic acid [Example 104]”, the pEC50 at GLP-1R was 5.52. Also, the “Predicted Hepatic Clearance (Pred. Cl.)” value in series [1] is 13 mL/min/kg.

On to `CC1(c2ccc(Cl)cn2)Oc2ccc(F)c(-c3ccc(Cc4nc5ccc(C(=O)O)cc5n4C[C@@H]4CCO4)c(F)c3)c2O1` (stereo partly drawn) [Example 76, 2-(4-(2-(5-chloropyridin-2-yl)-5-fluoro-2-methylbenzo[d][1, 3]dioxol-4-yl)-2-fluorobenzyl)-1-(((S)-oxetan-2-yl)methyl)-1H-benzo[d]imidazole-6-carboxylic acid], for which, on GLP-1R, the pEC50 was 8.37. For the same molecule, in series [1], the “Predicted Hepatic Clearance (Pred. Cl.)” value is 8 mL/min/kg.
